Several values for one entry are separate records, joined by “and”; a condition that tells them apart may be missing. Identical values can stand only once. Square brackets hold non-standard residues; d marks the D form. Peptide text beside a SMILES is read from it.

For this assay, the target named is T1, Tau40 P301L protein (Homo sapiens, UniProt P10636, P618L).
T1 construct: His (N); made in house; host or cells: E. coli BL21
Nature of the assay: Thioflavin T assay of Tau40 amyloid inhibition (Tau40 assay). The class given is biochemical. The conditions noted are these: Thioflavin T fluorescence, Tau40 P301L 2.5 μM, 10 μM heparin.

T1 sequence (P10636 1-441 isoform P10636-8 P301L): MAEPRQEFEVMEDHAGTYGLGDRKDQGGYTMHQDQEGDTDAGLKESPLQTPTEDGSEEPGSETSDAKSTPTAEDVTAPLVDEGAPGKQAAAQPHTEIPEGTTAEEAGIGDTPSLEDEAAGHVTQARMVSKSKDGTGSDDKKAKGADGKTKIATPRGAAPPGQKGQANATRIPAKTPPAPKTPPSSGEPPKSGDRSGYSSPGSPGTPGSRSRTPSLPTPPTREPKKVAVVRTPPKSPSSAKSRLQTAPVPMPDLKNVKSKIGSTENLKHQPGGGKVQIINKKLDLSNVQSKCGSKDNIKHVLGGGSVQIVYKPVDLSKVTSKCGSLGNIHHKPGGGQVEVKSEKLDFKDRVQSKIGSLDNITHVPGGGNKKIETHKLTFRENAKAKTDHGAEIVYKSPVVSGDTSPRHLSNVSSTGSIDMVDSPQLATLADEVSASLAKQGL

As usually defined, the IC50 is the concentration at which inhibition is half-maximal. For `CC[C@@H](C)[C@@H](NC(=O)[C@@H](Cc1c[nH]cn1)NC(=O)[C@@H](CC(C)C)NC(=O)[C@@H](CCCCN)NC(=O)[C@H](N)Cc1ccccc1)C(=O)N[C@H](CCCNC(=N)N)C(=O)N[C@H](Cc1c[nH]cn1)C(=O)N[C@H](Cc1c[nH]c2ccccc12)C(=O)O` [compound 128] (H-[dF][dK][dL][dH][dI][dR][dH][dW]-OH; N-terminus and C-terminus assumed), the half-inhibitory concentration (IC50) was 1710 nM and 1760 nM.

These data come from patent US11453701B2, “Tau aggregation peptide inhibitors” (ADRX, INC., priority 2017, dated 2022).
